Key:
Assay type in all cases: functional, cell-based
HepG2 = assay: Cytotoxicity against human HepG2 cells after 72 hrs by SRB assay; conditions: HepG2, 72 h
SK-MEL-2 = assay: Cytotoxicity against human SK-MEL-2 cells after 72 hrs by SRB assay; conditions: SK-MEL-2, 72 h
LNCaP = assay: Cytotoxicity against human LNCAP cells after 72 hrs by SRB assay
KB = assay: Cytotoxicity against human KB cells after 72 hrs by SRB assay
MCF7 = assay: Cytotoxicity against human MCF7 cells after 72 hrs by SRB assay; conditions: MCF7, 72 h

SMILES | IC50 (HepG2) | IC50 (SK-MEL-2) | IC50 (LNCaP) | IC50 (KB) | IC50 (MCF7)
C=C(C)C[C@@H](C[C@]1(C)OC(=O)[C@]23CC[C@H]4C(=CC[C@H]5C(C)(C)[C@@H](O[C@@H]6OC[C@@H](O)[C@H](O)[C@H]6O[C@@H]6O[C@H](CO)[C@@H](O)[C@H](O)[C@H]6O)CC[C@]45C)[C@]2(C)CC[C@@H]31)OC(C)=O | 7.03 µM | 10.8 µM | 10.1 µM | 11 µM | 7.25 µM
CC(=O)O[C@@H](CC(C)C)C[C@]1(C)OC(=O)[C@]23CC[C@H]4C(=CC[C@H]5C(C)(C)[C@@H](O[C@@H]6OC[C@@H](O)[C@H](O)[C@H]6O[C@@H]6O[C@H](CO)[C@@H](O)[C@H](O)[C@H]6O)CC[C@]45C)[C@]2(C)CC[C@@H]31 | 5.28 µM | 5.77 µM | 7.6 µM | 8.86 µM | 6.36 µM
C=C(C)C[C@@H](C[C@]1(C)OC(=O)[C@]23CC[C@H]4C(=CC[C@H]5C(C)(C)[C@@H](O[C@@H]6OC[C@@H](O)[C@H](O)[C@H]6O[C@@H]6OC[C@@H](O)[C@H](O)[C@H]6O)CC[C@]45C)[C@]2(C)CC[C@@H]31)OC(C)=O | 1.92 µM | 2.27 µM | 3.13 µM | 2.36 µM | 2.11 µM
C=C(C)CCC(O)[C@]1(C)OC(=O)[C@]23CC[C@H]4C(=CC[C@H]5C(C)(C)[C@@H](O[C@@H]6OC[C@@H](O)[C@H](O)[C@H]6O[C@@H]6O[C@H](CO)[C@@H](OS(=O)(=O)O)[C@H](O)[C@H]6O)CC[C@]45C)[C@]2(C)CC[C@H]13 (stereo partly drawn) | 55.3 µM | 67.2 µM | 51.5 µM | 45.4 µM | 59.5 µM
Cc1c2ccncc2c(C)c2c1[nH]c1ccccc12 [ELLIPTECINE] |  | 1.91 µM | 1.95 µM | 1.79 µM | 
C=C(C)CCC(O)[C@]1(C)OC(=O)[C@]23CC[C@H]4C(=CC[C@H]5C(C)(C)[C@@H](O[C@@H]6OC[C@@H](O)[C@H](O)[C@H]6O[C@@H]6O[C@H](CO)[C@@H](O)[C@H](O)[C@H]6O)CC[C@]45C)[C@]2(C)CC[C@H]13 (stereo partly drawn) | 37.9 µM | 43.5 µM | 51.6 µM | 33.5 µM | 41.9 µM
CC(C)C[C@H](O)C[C@]1(C)OC(=O)[C@]23CC[C@H]4C(=CC[C@H]5C(C)(C)[C@@H](O[C@@H]6OC[C@@H](O)[C@H](O)[C@H]6O[C@@H]6OC[C@@H](O)[C@H](O)[C@H]6O)CC[C@]45C)[C@]2(C)CC[C@@H]31 | 53.8 µM | 41.9 µM | 59.3 µM | 48.4 µM | 52.2 µM
CC(=O)O[C@@H](CC(C)C)C[C@]1(C)OC(=O)[C@]23CC[C@H]4C(=CC[C@H]5C(C)(C)[C@@H](O[C@@H]6OC[C@@H](O)[C@H](O)[C@H]6O[C@@H]6O[C@H](C)[C@@H](O)[C@H](O)[C@H]6O)CC[C@]45C)[C@]2(C)CC[C@@H]31 | 2.97 µM | 2.7 µM | 3.02 µM | 2.82 µM | 2.12 µM
CC(=O)O[C@@H](CC(C)C)C[C@]1(C)OC(=O)[C@]23CC[C@H]4C(=CC[C@H]5C(C)(C)[C@@H](O[C@@H]6OC[C@@H](O)[C@H](O)[C@H]6O[C@@H]6OC[C@@H](O)[C@H](O)[C@H]6O)CC[C@]45C)[C@]2(C)CC[C@@H]31 | 2.04 µM | 2.21 µM | 2.7 µM | 3.11 µM | 2.08 µM

— ChEMBL document CHEMBL4033701, “Cytotoxic triterpene diglycosides from the sea cucumber Stichopus horrens” (Bioorg Med Chem Lett, 2017)
